The subject of one data set is RasNIH3T3. Briefly: Cellular activity, MTT cell growth assay, RasNIH3T3. The class given is cell-based. Conditions: 96 h, read-out: RasNIH3T3 (cellular data).
For a further data set, the system named is LIM2537. The data set can be described thus: Cellular activity, MTT cell growth assay, LIM2537. The conditions noted are these: 96 h, 4 days incubation. The data set is classed as cell-based. How it is done: (§1) A. Cells, Inhibitors and Incubation
(§2) 1. Cell Lines • LIM 1899 colon carcinoma derived epithelial cells were grown in RPMI+Adds^1+10% FCS. ^1 Additives for culture of LIM cell lines: 10 μM thioglycerol, 0.025 U/mL insulin, 1 μg/mL hydrocortisone
(§3) 2. Cell Plating in 96 Well Plate. • Assay medium: RPMI+Adds+5% FCS • Cells are trypsinized, washed once in assay medium and brought to the required concentration as described below: • Need 10^4 cells per well in 100 μL per well=10^5 per mL for plating • After washing, cells were resuspended in 5 mL and counted (1×T75 flask gives approx 2−3×10 eg^6 per mL). • Cells were then diluted to 10^5 cells/mL (need 10 mL minimum per plate). • Eg. Cell count in 5 mL is 25×10^5/mL • For 10^5/mL, dilute 1 mL to 25 mL • 100 μL per well cells were plated with multistepper pipette, over the whole plate. Plates were incubated overnight at 37° C.+5% CO2 incubator.
(§4) 3. Inhibitor Stocks • Inhibitors were dissolved in DMSO for 10 mM stocks. MW and amount of compound given was used to calculate the volume required for each. • 4× the highest concentration of the compound in the assay was calculated to prepare the working stocks. • eg 1st well final concentration in assay was 10 μM. • Therefore working stock was 40 μM • Stock solution is 10 mM→40 μM=4 μl in 1.0 mL assay medium for working stock.
(§5) 4. Plate Plan: • Rows A,B: Inhibitor 1 • Rows C,D: Inhibitor 2 • Rows E,F: Inhibitor 3 • Row G: RPMI+Adds+5% FCS (=maximum growth) • Row H: RPMI+Adds serum free (=minimum growth)
(§6) 5. Titration of Inhibitors • A 96 well plate was used to titrate the inhibitors for each assay plate: • 150 μL assay medium was added to each well of a 96 well plate. • 150 μL of Inhibitor 1 working stock was added wells A1 and B1. • Repeated with Inhibitor 2 to C1 and D1 • Repeated with Inhibitor 3 to E1 and F1 • Serial ½ dilutions were performed across the plate, rows A to F, left to right with 150 μL.
(§7) 6. Transfer Titrated Inhibitors to Cell Assay Plate: Final Volume 200 μl • Using a multichannel pipette, 100 μL was transferred from the corresponding wells of the titration plate to the cell assay plate, rows A to G. • Row H: medium was carefully removed from the cell wells with a 200 μL tip, and replaced with 200 μL serum free medium.
(§8) 7. Incubation • Plates were incubated for 4 days at 37° C. with 5% CO2.
(§9) B. Use of MTT to Measure Cell Growth
(§10) 1. MTT Preparation and Storage • MTT Sigma M-2128 5 g • Dissolved in PBS, at 5 mg/mL • 5 g bottle dissolved in 1 liter PBS (some impurities remain) • Filter sterilized and aliquoted in 50 mL tubes, stored at −20° C. • As needed, 50 mL tube was thawed and aliquoted in 5 mL tubes, re-stored at −20° C. • Stable at 4° C. for 1 month (unstable if left at 37° C. too long while thawing)
(§11) 2. MTT Solvent • a. 1M HCl: • Mixed 44.6 mL conc HCl (11.2M) in 500 mL DDW • b. Acidified isopropanol (Isopropanol with 0.04 N HCl): • Mixed 20 mL 1M HCl with 480 mL isopropanol (Propan-2-ol, iso-Propyl Alcohol)
(§12) 3. MTT Assay • After cell incubation (above): • Added 10 μL MTT to each well. • Incubated 4 hrs in 37° C. incubator. • Spun plates, 5 min, 1500 rpm. • Carefully flicked out medium into the sink, without disturbing the crystals. • Added 200 μL acidified isopropanol per well. • Placed on plate shaker, RT, speed 6.5, for 10 min-30 min. • Read OD of plates on Thermo Multiskan Ex, at 560/690 nm.
(§13) • Mosmann, T. • Rapid colorimetric assay for cellular growth and survival: application to proliferation and cytotoxic assays. Journal of Immunological Methods (1983), 65:55-63. Table with Examples of Cellular Data
(§14) The compounds in this invention display cellular activities against a range of tumour or transformed cell lines in particular colon cancer cell lines such as LIM1215, LIM2537 and LIM1899.

Data set [1] concerns the target T1, Src recombinant enzyme, N-terminally His6 tagged full-length human protein (Homo sapiens, UniProt P12931).
T1 construct: Src recombinant enzyme was purchased as N-terminally His6 tagged full-length human protein; His6 (N); purchased
The data set can be described thus: SRC kinase inhibition assay (AlphaScreen). The class given is biochemical. Conditions: 80 μM ATP, 90 minutes at 30 degree Celsius. The method, then:
Protocol for SRC Kinase Inhibition Assay. Compounds of the invention were tested for in vitro activity in the following assay: A biotin labeled peptide was used as substrate (amino acid sequence: Biotin-[…]). Src recombinant enzyme was purchased as N-terminally His6 tagged full-length human protein. The 15 μL assay reactions were run in Greiner brand white 384-well low volume plates. […] Compounds were added in a volume of 100 nL from dilution series made up in DMSO, positive and negative control reactions receiving the same volume DMSO without compounds. The plates were sealed with adhesive seals and incubated for 90 minutes at 30 degree Celsius. The reactions were stopped with the detection reagents added at the same time. Product formation was quantified as photochemiluminescence between PerkinElmer AlphaScreenTM beads, using Streptavidin-coated donor and anti-phosphotyrosine (P-[…]) acceptor beads. […] Plates were incubated for 5 hours before being read on a PerkinElmer EnVisionTM plate reader in HTS AlphascreenTM mode. IC50 values were obtained by calculating percent inhibition (% I) for each reaction relative to controls on the same plate (% [SMILES] where CN/CP are the averages of the negative/positive reactions, respectively), then fitting the % I data vs. compound concentration [I] to % I=([…])))) where A is the lower asymptote, B is the upper asymptote, C is the IC50 value, and D is the slope factor.

Data set [2] deals with LIM 1899 colon carcinoma derived epithelial cells. Briefly: Cellular activity, MTT cell growth assay, LIM1899. The class given is cell-based. Conditions: 96 h, 4 days incubation. The method, then:
as §1, §2, §3, §4, §5, §6, §7, §8, §9, §10, §11, §12, §13, §14

A further data set concerns LIM1215. Briefly: Cellular activity, MTT cell growth assay, LIM1215. The class given is cell-based. Conditions: LIM1215, 96 h, read-out: LIM1215 (cellular data). How it is done: as §1, §2, §3, §4, §5, §6, §7, §8, §9, §10, §11, §12, §13, §14
The nature of the next data set: Solubility. The data set is classed as physicochemical.
The test system of data set [3] is SFKs (Src family kinases). Conditions: reported; no discrimination between family members; cited from earlier work.

Read-outs that look alike come from different tables or passages of the source.

T1 sequence (P12931 whole entry): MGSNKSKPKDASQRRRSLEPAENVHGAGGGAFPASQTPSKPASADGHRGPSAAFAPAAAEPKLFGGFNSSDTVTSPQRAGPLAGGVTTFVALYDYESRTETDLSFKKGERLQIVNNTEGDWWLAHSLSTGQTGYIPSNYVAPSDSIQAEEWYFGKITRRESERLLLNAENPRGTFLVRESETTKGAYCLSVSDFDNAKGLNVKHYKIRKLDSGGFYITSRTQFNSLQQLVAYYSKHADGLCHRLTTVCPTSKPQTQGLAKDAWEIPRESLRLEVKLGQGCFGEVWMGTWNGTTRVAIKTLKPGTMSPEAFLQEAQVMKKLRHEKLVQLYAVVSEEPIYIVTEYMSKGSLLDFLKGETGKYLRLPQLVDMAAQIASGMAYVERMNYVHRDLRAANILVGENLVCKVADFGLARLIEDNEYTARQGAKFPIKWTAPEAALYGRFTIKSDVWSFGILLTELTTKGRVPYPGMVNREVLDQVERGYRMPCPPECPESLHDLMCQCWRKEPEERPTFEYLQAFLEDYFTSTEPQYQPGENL

As for `Cc1ccc(-c2nn(C(C)(C)CNC(=O)c3ccccn3)c3ncnc(N)c23)cc1` [Example 12], the IC50 in the data set on RasNIH3T3 (MTT, 4 days incubation) is 110 nM; in the data set on LIM2537, 170 nM; in data set [1], 1 to 100 nM; in data set [2], 170 nM; in the data set with LIM1215 (MTT, 4 days incubation) it was 170 nM.
In the case of `Cc1ccc(-c2nn(C(C)(C)C)c3ncnc(N)c23)cc1` [PP1, reference compound], the IC50 was 9250 nM with RasNIH3T3 and 250 nM with LIM1215. Besides, the solubility result in “Solubility” was “poorly soluble”. Further, the “inhibition of SFKs” value in data set [3] is given as “potent inhibitors”.
For `CC(C)(C)n1nc(-c2ccc(Cl)cc2)c2c(N)ncnc21` [PP2], the solubility entry in “Solubility” is recorded as “poorly soluble”. Also, in data set [3], the “inhibition of SFKs” value is “potent inhibitors”.

The values are drawn from US8962830B2, “Protein kinase inhibitors and methods of treatment” (The Walter and Eliza Hall Institute of Medical Research, priority 2010, dated 2015).
